Key:
Assay in all cases: Test D controlled growth environment herbicide test, pre- and postemergence
Type in all cases: in vivo
[1] = tested on: buckwheat, wild (wild buckwheat, Polygonum convolvulus)
Description: (§1) Seeds of plant species selected from bluegrass (annual bluegrass, Poa annua), blackgrass (Alopecurus myosuroides), Canada thistle (Cirsium arvense), canarygrass (Phalaris minor), chickweed (common chickweed, Stellaria media), geranium, cutleaf (cutleaf geranium, Geranium dissectum), galium (catchweed bedstraw, Galium aparine), bromegrass, downy (downy bromegrass, Bromus tectorum), field poppy (Papaver rhoeas), field violet (Viola arvensis), foxtail, green (green foxtail, Setaria viridis), deadnettle (henbit deadnettle, Lamium amplexicaule), ryegrass, Italian (Italian ryegrass, Lolium multiflorum), kochia (Kochia scoparia), lambsquarters (Chenopodium album), oilseed rape (Brassica napus), pigweed (Amaranthus retroflexus), chamomile (scentless chamomile, Matricaria inodora), Russian thistle (Salsola kali), speedwell (bird's-eye speedwell, Veronica persica), barley, spring (spring barley, Hordeum vulgare), wheat, spring (spring wheat, Triticum aestivum), buckwheat, wild (wild buckwheat, Polygonum convolvulus), mustard, wild (wild mustard, Sinapis arvensis), oat, wild (wild oat, Avena fatua), radish, wild (wild radish, Raphanus raphanistrum), windgrass (Apera spica-venti), barley, winter (winter barley, Hordeum vulgare), and wheat, winter (winter wheat, Triticum aestivum) were planted into a silt loam soil and treated preemergence with test chemicals formulated in a non-phytotoxic solvent mixture which included a surfactant.
(§2) At the same time, these species were planted in pots containing Redi-Earth® planting medium (Scotts Company, 14111 Scottslawn Road, Marysville, Ohio 43041) comprising spaghnum peat moss, vermiculite, wetting agent and starter nutrients and treated with postemergence applications of the test chemicals formulated in the same manner. Plants ranged in height from 2 to 18 cm (1- to 4-leaf stage). Treated plants and controls were maintained in a controlled growth environment for 14 to 21 d after which time all species were compared to controls and visually evaluated. Plant response ratings, summarized in Table D, are based on a scale of 0 to 100 where 0 is no effect and 100 is complete control. A dash (-) response means no test result.

[2] = tested on: oilseed rape (Brassica napus)
Description: as §1, §2

[3] = tested on: barley, winter (winter barley, Hordeum vulgare)
Description: as §1, §2

[4] = tested on: bluegrass (annual bluegrass, Poa annua)
Description: as §1, §2

[5] = tested on: mustard, wild (wild mustard, Sinapis arvensis)
Description: as §1, §2

[6] = tested on: oat, wild (wild oat, Avena fatua)
Description: as §1, §2

[7] = tested on: canarygrass (Phalaris minor)
Description: as §1, §2

[8] = tested on: foxtail, green (green foxtail, Setaria viridis)
Description: as §1, §2

[9] = tested on: wheat, spring (spring wheat, Triticum aestivum)
Description: as §1, §2

[10] = tested on: field poppy (Papaver rhoeas)
Description: as §1, §2

[11] = tested on: galium (catchweed bedstraw, Galium aparine)
Description: as §1, §2

[12] = tested on: barley, spring (spring barley, Hordeum vulgare)
Description: as §1, §2

[13] = tested on: pigweed (Amaranthus retroflexus)
Description: as §1, §2

[14] = Postemergence, 31 g ai/ha, scale 0 to 100 (0 no effect, 100 complete control)
[15] = Postemergence, 125 g ai/ha, visual rating on scale 0 (no effect) to 100 (complete control), 14 to 21 d
[16] = Postemergence, 250 g ai/ha, scale 0 to 100 (0 no effect, 100 complete control)
[17] = Preemergence, 62 g ai/ha, scale 0 to 100 (0 no effect, 100 complete control)
[18] = Preemergence, 125 g ai/ha, scale 0 to 100 (0 no effect, 100 complete control)
[19] = Preemergence, 250 g ai/ha, scale 0 to 100, 0 no effect, 100 complete control
[20] = postemergence, 62 g ai/ha, scale 0 to 100, 0 no effect, 100 complete control

Cc1ccc2sc(Br)c(-c3c(O)c(C)nn(C)c3=O)c2c1 [Compound 79]
80: Plant response rating, Oat, Wild [6, 15] | Plant response rating (scale of 0 to 100), Oat, Wild ([6]; Preemergence, 31 g ai/ha) | Plant response rating, Oat, Wild [6, 17] | Plant response rating, Foxtail, Green [8, 16] | Plant response rating (scale of 0 to 100), Galium ([11]; Preemergence, 31 g ai/ha)
70: Buckwheat, Wild plant response rating [1, 14] | Oat, Wild plant response rating [6, 14] | Plant response rating, Oat, Wild [6, 20] | Plant response rating, Foxtail, Green [8, 20]
65: Plant response rating, Foxtail, Green [8, 18]
15: Plant response rating, Bluegrass [4, 16] | Plant response rating, Mustard, Wild [5, 17]
90: Plant response rating, Buckwheat, Wild [1, 17] | Plant response rating, Oat, Wild [6, 19] | Plant response rating, Galium [11, 17]
45: Plant response rating, Canarygrass [7, 16] | Plant response rating (scale of 0 to 100), Canarygrass ([7]; Preemergence, 31 g ai/ha) | Plant response rating (scale of 0 to 100), Pigweed ([13]; Preemergence, 31 g ai/ha)
98: Plant response rating, Field Poppy [10, 16]
95: Plant response rating, Foxtail, Green [8, 19] | Plant response rating, Field Poppy [10, 15] | Galium plant response rating [11, 14]
0: Plant response rating (scale of 0 to 100), Buckwheat, Wild ([1]; Preemergence, 31 g ai/ha) | Oilseed Rape plant response rating [2, 14] | Barley, Winter plant response rating [3, 14] | Plant response rating, Barley, Winter [3, 15] | Plant response rating (scale of 0 to 100), Barley, Winter ([3]; Preemergence, 31 g ai/ha) | Plant response rating, Barley, Winter [3, 17] | Plant response rating, Barley, Winter [3, 18] | Plant response rating, Barley, Winter [3, 20] | Plant response rating (scale of 0 to 100), Mustard, Wild ([5]; Preemergence, 31 g ai/ha) | Wheat, Spring plant response rating [9, 14] | Plant response rating, Wheat, Spring [9, 15] | Plant response rating (scale of 0 to 100), Wheat, Spring ([9]; Preemergence, 31 g ai/ha) | Plant response rating, Wheat, Spring [9, 17] | Plant response rating, Wheat, Spring [9, 18] | Plant response rating, Wheat, Spring [9, 19] | Plant response rating, Wheat, Spring [9, 20] | Barley, Spring plant response rating [12, 14] | Plant response rating (scale of 0 to 100), Barley, Spring ([12]; Preemergence, 31 g ai/ha) | Plant response rating, Barley, Spring [12, 17] | Plant response rating, Barley, Spring [12, 18] | Plant response rating, Barley, Spring [12, 19]
20: Plant response rating, Oilseed Rape [2, 15] | Mustard, Wild plant response rating [5, 14] | Plant response rating, Mustard, Wild [5, 20] | Plant response rating, Canarygrass [7, 20] | Foxtail, Green plant response rating [8, 14]
5: Plant response rating, Oilseed Rape [2, 20] | Plant response rating, Barley, Winter [3, 16] | Bluegrass plant response rating [4, 14] | Plant response rating, Mustard, Wild [5, 18] | Canarygrass plant response rating [7, 14] | Plant response rating, Wheat, Spring [9, 16] | Plant response rating, Barley, Spring [12, 15] | Plant response rating, Barley, Spring [12, 20]
50: Plant response rating, Mustard, Wild [5, 16]
85: Plant response rating, Oat, Wild [6, 16] | Plant response rating, Oat, Wild [6, 18] | Plant response rating, Canarygrass [7, 19] | Plant response rating, Field Poppy [10, 20]
10: Plant response rating, Barley, Winter [3, 19] | Plant response rating, Bluegrass [4, 15] | Plant response rating (scale of 0 to 100), Bluegrass ([4]; Preemergence, 31 g ai/ha) | Plant response rating, Bluegrass [4, 17] | Plant response rating, Bluegrass [4, 20] | Plant response rating, Mustard, Wild [5, 19] | Plant response rating, Barley, Spring [12, 16]
100: Plant response rating, Buckwheat, Wild [1, 15] | Plant response rating, Buckwheat, Wild [1, 16] | Plant response rating, Buckwheat, Wild [1, 19] | Plant response rating, Buckwheat, Wild [1, 20] | Plant response rating (scale of 0 to 100), Field Poppy ([10]; Preemergence, 31 g ai/ha) | Plant response rating, Field Poppy [10, 17] | Plant response rating, Field Poppy [10, 18] | Plant response rating, Field Poppy [10, 19] | Plant response rating, Galium [11, 15] | Plant response rating, Galium [11, 16] | Plant response rating, Galium [11, 18] | Plant response rating, Galium [11, 19] | Plant response rating, Galium [11, 20] | Pigweed plant response rating [13, 14] | Plant response rating, Pigweed [13, 15] | Plant response rating, Pigweed [13, 16] | Plant response rating, Pigweed [13, 17] | Plant response rating, Pigweed [13, 18] | Plant response rating, Pigweed [13, 19] | Plant response rating, Pigweed [13, 20]
40: Plant response rating, Oilseed Rape [2, 18] | Plant response rating, Mustard, Wild [5, 15] | Plant response rating, Canarygrass [7, 15]
55: Plant response rating (scale of 0 to 100), Foxtail, Green ([8]; Preemergence, 31 g ai/ha)
35: Plant response rating, Oilseed Rape [2, 17] | Plant response rating, Oilseed Rape [2, 19] | Plant response rating, Bluegrass [4, 19]
60: Plant response rating, Canarygrass [7, 17] | Plant response rating, Foxtail, Green [8, 17]
75: Plant response rating, Canarygrass [7, 18] | Plant response rating, Foxtail, Green [8, 15] | Field Poppy plant response rating [10, 14]
30: Plant response rating, Oilseed Rape [2, 16]
25: Plant response rating, Buckwheat, Wild [1, 18] | Plant response rating (scale of 0 to 100), Oilseed Rape ([2]; Preemergence, 31 g ai/ha) | Plant response rating, Bluegrass [4, 18]

Reference: patent publication US10597388B2, “Pyridazinone herbicides” (FMC CORPORATION, priority 2014, dated 2020)
